Our source for the IC50, Ki and inhibition values is patent publication US20160311795A1, “PYRIMIDINE DIAMINE DERIVATIVES AS INHIBITORS OF CYTOSOLIC HSP90” (CALASIA PHARMACEUTICALS, INC., priority 2012, published 2016).

This experiment addresses T1, human full length Hsp90 (Homo sapiens, UniProt P07900).
T1 construct: amino acid residues 1 to 732 of human Hsp90 (GenBank: BC121062.2); made in house; host or cells: E. coli BL21DE3 (pET15b)
Nature of the experiment: Fluorescence polarization Hsp90 competitive binding assay (GM-FITC displacement). To be noted: for inhibition at 10 µM: compound at 10 μM, read-out: Biochemical Potency % Inhibition at 10 μM; for inhibition at 1 µM: compound at 1 μM, read-out: Biochemical Potency % Inhibition at 1 μM. The protocol: Hsp90 binding assays was performed generally according to the procedure described in J. Biomol. […] Hsp90 inhibitors were solubilized in DMSO at a stock concentration of 50 mM. […] Eighty five μl of binding assay buffer (20 mM HEPES, pH-7.5, 50 mM KCl, 5 mM MgCl2, 20 mM sodium molybdate, 0.01% NP-40, 2 mM DTT, and 0.1 mg/ml BSA) was added to the wells of a 96 well black plate placed on ice. […] Next, 10 μl either binding assay buffer alone (control) or human full length Hsp90 protein diluted in the binding assay buffer was added to achieve a final concentration of 50 nM. The plates were incubated at 4° C. on a plate shaker for 24 h. Two μl of 50× GM-FITC (9 nM final) in DMSO was added to all wells and the plate was incubated at ambient temperature for 1 h with shaking. Fluorescence polarization readings were taken in duplicate at excitation and emission wavelengths of 480 nm and 500 nm respectively. Specific binding was calculated by subtracting polarization values in the presence of Hsp90 from those in the absence of Hsp90. To calculate percent inhibition the specific binding values obtained for GA-FITC in the presence of compound were compared to values for GA-FITC in the absence of compound (DMSO only).

Setting [1] is: Table 1, 50 nM Hsp90, 9 nM GM-FITC, read-out: Biochemical Potency IC50.
Setting [2] is: Table II, binding affinities ranked by potency.
The mark [3] stands for this setting: Table II, binding affinities ranked by potency, read-out: IC50.

Read-outs that look alike come from different tables or passages of the source.

The term IC50 denotes the point on the concentration scale where inhibition reaches its midpoint. In general, Ki refers to a measure of affinity in units of concentration, obtained from inhibition or displacement. High values mean lower affinity, low ones higher affinity. In the case of “6-Chloro-N4-((4-methoxy-3,5-dimethylpyridin-2-yl)methyl)-N4-(3-methoxyphenethyl)pyrimidine-2,4-diamine [SBI-0640606]”, the IC50 runs as follows: under setting [1], 432 nM; under setting [3], 432 nM. This compound displayed a Ki under setting [2] of 108 nM.

Consider “6-Chloro-N4-((4-methoxy-3,5-dimethylpyridin-2-yl)methyl)-N4-(4-methoxyphenethyl)pyrimidine-2,4-diamine [SBI-0640605]”, for which the IC50 is, setting by setting: under setting [1], 350 nM; under setting [3], 350 nM. The compound also returned a Ki under setting [2] of 88 nM.

By inhibition is commonly meant how much of the control response was suppressed. As to `COc1cc(CNc2cc(Cl)nc(N)n2)cc(OC)c1OC` [SBI-0206664], the inhibition at 10 µM came out at 25%. The compound further yielded a Ki under setting [2] greater than 2500 nM. The IC50 under setting [3] is greater than 10000 nM.

In the case of `COc1c(C)cnc(CNc2cc(Cl)nc(N)n2)c1C` [SBI-0206665], the inhibition at 1 µM was 7% and the inhibition at 10 µM amounted to 61%. Also, the IC50 under setting [1] amounted to 7500 nM. In addition, affinity under setting [2] was put at a Ki of 1000 nM. The IC50 under setting [3] turned out to be 4000 nM.

Take `COc1cccc(CNc2cc(Cl)nc(N)n2)c1` [SBI-0630160]: the inhibition at 10 µM came out at 13%. In addition, under setting [2], the Ki is greater than 2500 nM. The IC50 under setting [3] is greater than 10000 nM.

Regarding `COc1ccc(CNc2cc(C(F)(F)F)nc(N)n2)c(OC)c1OC` [SBI-0630180], the inhibition at 10 µM turned out to be 4%. Under setting [2], this compound showed a Ki greater than 2500 nM. Also, the IC50 under setting [3] was greater than 10000 nM.

Regarding `Cc1cc(C)cc(CNc2cc(C(F)(F)F)nc(N)n2)c1` [SBI-0633823], the inhibition at 10 µM worked out at 17%. The compound further showed a Ki under setting [2] greater than 2500 nM. The IC50 under setting [3] is greater than 10000 nM.

Regarding `COc1cc(NCc2cc(OC)c(OC)c(OC)c2)nc(N)n1` [SBI-0633825], the IC50 reads like this: under setting [1], greater than 250000 nM; under setting [3], greater than 10000 nM. Under setting [2], this compound gave a Ki greater than 2500 nM.

For `Nc1nc(Cl)cc(NCc2ccc(-c3ccccc3)cc2)n1` [SBI-0633826], the inhibition at 10 µM worked out at 21%. The compound further showed a Ki under setting [2] greater than 2500 nM. In addition, the IC50 under setting [3] is greater than 10000 nM.

In the case of `COc1cc(CNc2ccnc(N)n2)cc(OC)c1OC` [SBI-0634911], the half-maximal inhibitory concentration (IC50) was greater than 250000 nM under setting [1] and greater than 10000 nM under setting [3]. This compound displayed a Ki under setting [2] greater than 2500 nM.

Take `COc1ccc(CNc2ccnc(N)n2)cc1OC` [SBI-0634912]: the IC50 runs as follows: under setting [1], greater than 250000 nM; under setting [3], greater than 10000 nM. Under setting [2], this compound had a Ki greater than 2500 nM.

Consider `COc1cc(CNc2nc(N)nc3[nH]ccc23)cc(OC)c1OC` [SBI-0635446], for which the inhibition at 10 µM was found to be 10%. Further, under setting [2], the Ki was greater than 2500 nM. Further, under setting [3], the IC50 is greater than 10000 nM.

Consider `Nc1nc(Cl)cc(Nc2ccc3c(c2)OCO3)n1` [SBI-0636438], for which the inhibition at 10 µM was found to be 18%. The Ki under setting [2] is greater than 2500 nM. Moreover, the IC50 under setting [3] is greater than 10000 nM.

For the compound `Nc1nc(Cl)cc(NCc2ccc(-c3ccc(Cl)cc3F)cc2)n1` [SBI-0638966], the inhibition at 10 µM stood at 34%. For the same compound, under setting [2], the Ki was greater than 2500 nM. Also, the IC50 under setting [3] is greater than 10000 nM.

With `Nc1nc(Cl)cc(NCc2ccc(Oc3ccccc3)cc2)n1` [SBI-0638967], the inhibition at 10 µM was 10%. Under setting [2], this compound registered a Ki greater than 2500 nM. Besides, the IC50 under setting [3] is greater than 10000 nM.

As for `CCOc1ccc(-c2ccc(CNc3cc(Cl)nc(N)n3)cc2)cc1` [SBI-0638969], the inhibition at 10 µM worked out at 3%. Also, the Ki under setting [2] was greater than 2500 nM. Under setting [3], the half-maximal inhibitory concentration (IC50) is greater than 10000 nM.

For the compound `COc1c(C)cnc(CNc2nc(N)nc3[nH]cnc23)c1C` [SBI-0639182], the inhibition at 1 µM came to 4% and the inhibition at 10 µM worked out at 19%. The Ki under setting [2] was greater than 2500 nM. Also, the IC50 under setting [3] is greater than 10000 nM.

With `COc1cccc2c1ccn2-c1cc(N)c(C(N)=O)c(NC2CCOCC2)c1` [SBI-0639186], the inhibition at 1 µM was 5% and the inhibition at 10 µM came to 10%. The Ki under setting [2] was greater than 2500 nM. Moreover, the concentration for half-maximal inhibition (IC50) under setting [3] was greater than 10000 nM.

As to `Cc1cnc(CNc2cc(Cl)nc(N)n2)c(C)c1Cl` [SBI-0639217, 6-Chloro-N4-((4-chloro-3,5-dimethylpyridin-2-yl)methyl)pyrimidine-2,4-diamine], the inhibition at 1 µM turned out to be 47% and the inhibition at 10 µM turned out to be 93%. Further, the affinity under setting [2], expressed as Ki, was 300 nM. For the same compound, under setting [3], the IC50 is 1200 nM.

Consider `Cc1cnc(CNc2cc(Cl)nc(N)n2)c(C)c1Br` [SBI-0639218, N4-((4-Bromo-3,5-dimethylpyridin-2-yl)methyl)-6-chloropyrimidine-2,4-diamine], for which the inhibition at 1 µM worked out at 44% and the inhibition at 10 µM stood at 94%. Besides, the inhibition constant Ki under setting [2] came to 368 nM. The IC50 under setting [3] stood at 1470 nM.

As for `COc1c(C)cnc(CN(C)c2cc(Cl)nc(N)n2)c1C` [SBI-0639219, 6-Chloro-N4-((4-methoxy-3,5-dimethylpyridin-2-yl)methyl)-N4-methylpyrimidine-2,4-diamine], the inhibition at 1 µM is 57% and the inhibition at 10 µM was found to be 94%. The affinity under setting [2] corresponds to a Ki of 213 nM. Further, the IC50 under setting [3] came to 850 nM.

Regarding `Cc1cnc(CNc2cc(Cl)nc(N)n2)c(C)c1I` [SBI-0639220, 6-Chloro-N4-((4-iodo-3,5-dimethylpyridin-2-yl)methyl)pyrimidine-2,4-diamine], the inhibition at 1 µM came to 66% and the inhibition at 10 µM amounted to 98%. In addition, the affinity under setting [2], expressed as Ki, was 110 nM. Besides, the IC50 under setting [3] stood at 440 nM.

On to `COc1c(C)cnc(CN(CCCO)c2cc(Cl)nc(N)n2)c1C` [SBI-0639349, 3-((2-Amino-6-chloropyrimidin-4-yl)((4-methoxy-3,5-dimethylpyridin-2-yl)methyl)amino)propan-1-ol], for which the IC50 under setting [1] was 1370 nM and the IC50 under setting [3] amounted to 1370 nM. The Ki under setting [2] was 343 nM.

With `CCCN(Cc1ncc(C)c(OC)c1C)c1cc(Cl)nc(N)n1` [SBI-0639350, 6-Chloro-N4-((4-methoxy-3,5-dimethylpyridin-2-yl)methyl)-N4-propylpyrimidine-2,4-diamine], the IC50 runs as follows: under setting [1], 1100 nM; under setting [3], 1100 nM. This compound had a Ki under setting [2] of 275 nM.

For `COc1c(C)cnc(CN(Cc2ccccc2)c2cc(Cl)nc(N)n2)c1C` [SBI-0639351, N4-Benzyl-6-chloro-N4-((4-methoxy-3,5-dimethylpyridin-2-yl)methyl)pyrimidine-2,4-diamine], the IC50 is 2210 nM under setting [1] and 2210 nM under setting [3]. Also, the Ki under setting [2] was 553 nM.

As to `COc1c(C)cnc(CN(c2cc(Cl)nc(N)n2)C(C)C)c1C` [SBI-0639352, 6-Chloro-N4-isopropyl-N4-((4-methoxy-3,5-dimethylpyridin-2-yl)methyl)pyrimidine-2,4-diamine], the IC50 is, setting by setting: under setting [1], no less than 32000 nM; under setting [3], greater than 32000 nM. Further, under setting [2], the Ki was greater than 8000 nM.

Regarding `CCCCN(Cc1ncc(C)c(OC)c1C)c1cc(Cl)nc(N)n1` [SBI-0639354, N4-butyl-6-chloro-N4-((4-methoxy-3,5-dimethylpyridin-2-yl)methyl)pyrimidine-2,4-diamine], the IC50 was found to be 719 nM under setting [1] and 720 nM under setting [3]. Under setting [2], affinity was put at a Ki of 180 nM.

Consider `C=CCN(Cc1ncc(C)c(OC)c1C)c1cc(Cl)nc(N)n1` [SBI-0639355, N4-Allyl-6-chloro-N4-((4-methoxy-3,5-dimethylpyridin-2-yl)methyl)pyrimidine-2,4-diamine], for which the IC50 reads like this: under setting [1], 2870 nM; under setting [3], 2870 nM. In addition, affinity under setting [2] was put at a Ki of 718 nM.
